The source of these data is patent US10259810B2, “N-sulfonylated pyrazolo[3,4-b]pyridin-6-carboxamides and method of use” (AbbVie S.à.r.l., priority 2015, dated 2019).

The target of experiment [1] is T1, ΔF508-CFTR (Homo sapiens, UniProt P13569, DEL508-508).
T1 construct: host or cells: CFBE41o-, doxycycline-inducible
Briefly: CFTR cell surface levels using HRP-tagged ΔF508-CFTR expressing CFBE cells, intrinsic corrector capacity. The experiment is classed as cell-based. More on the design: % Activation: concentration or dose not given beside the values. The conditions noted are these: HRP-tagged ΔF508-CFTR expressing CFBE41o- cells, compound alone (intrinsic corrector capacity), 20 hours at 33° C.; for EC50: read-out: EC50. The gist of the method:
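Surface ΔF508-CFTR was measured as HRP chemiluminescence from an extracellular-loop-4 tag, expressed as percent activity between DMSO and a […] corrector control.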

The target of experiment [2] is T1, ΔF508-CFTR. The experiment can be described thus: CFTR cell surface levels using HRP-tagged ΔF508-CFTR expressing CFBE cells, in the presence of a co-corrector. It is filed as cell-based. The conditions noted are these: HRP-tagged ΔF508-CFTR CFBE cells, in the presence of 3 μM co-corrector; for EC50: read-out: EC50. In a few lines:
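Chemiluminescent read-out of surface HRP (15 min, dark) after PBS washes. Activity is normalized as 100×(sample−DMSO)/(3 μM co-corrector alone−DMSO).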

A word on the EC50: it is the concentration needed to bring the measured effect to its halfway point.

T1 sequence (P13569 with tags, fused parts or gaps DEL508-508): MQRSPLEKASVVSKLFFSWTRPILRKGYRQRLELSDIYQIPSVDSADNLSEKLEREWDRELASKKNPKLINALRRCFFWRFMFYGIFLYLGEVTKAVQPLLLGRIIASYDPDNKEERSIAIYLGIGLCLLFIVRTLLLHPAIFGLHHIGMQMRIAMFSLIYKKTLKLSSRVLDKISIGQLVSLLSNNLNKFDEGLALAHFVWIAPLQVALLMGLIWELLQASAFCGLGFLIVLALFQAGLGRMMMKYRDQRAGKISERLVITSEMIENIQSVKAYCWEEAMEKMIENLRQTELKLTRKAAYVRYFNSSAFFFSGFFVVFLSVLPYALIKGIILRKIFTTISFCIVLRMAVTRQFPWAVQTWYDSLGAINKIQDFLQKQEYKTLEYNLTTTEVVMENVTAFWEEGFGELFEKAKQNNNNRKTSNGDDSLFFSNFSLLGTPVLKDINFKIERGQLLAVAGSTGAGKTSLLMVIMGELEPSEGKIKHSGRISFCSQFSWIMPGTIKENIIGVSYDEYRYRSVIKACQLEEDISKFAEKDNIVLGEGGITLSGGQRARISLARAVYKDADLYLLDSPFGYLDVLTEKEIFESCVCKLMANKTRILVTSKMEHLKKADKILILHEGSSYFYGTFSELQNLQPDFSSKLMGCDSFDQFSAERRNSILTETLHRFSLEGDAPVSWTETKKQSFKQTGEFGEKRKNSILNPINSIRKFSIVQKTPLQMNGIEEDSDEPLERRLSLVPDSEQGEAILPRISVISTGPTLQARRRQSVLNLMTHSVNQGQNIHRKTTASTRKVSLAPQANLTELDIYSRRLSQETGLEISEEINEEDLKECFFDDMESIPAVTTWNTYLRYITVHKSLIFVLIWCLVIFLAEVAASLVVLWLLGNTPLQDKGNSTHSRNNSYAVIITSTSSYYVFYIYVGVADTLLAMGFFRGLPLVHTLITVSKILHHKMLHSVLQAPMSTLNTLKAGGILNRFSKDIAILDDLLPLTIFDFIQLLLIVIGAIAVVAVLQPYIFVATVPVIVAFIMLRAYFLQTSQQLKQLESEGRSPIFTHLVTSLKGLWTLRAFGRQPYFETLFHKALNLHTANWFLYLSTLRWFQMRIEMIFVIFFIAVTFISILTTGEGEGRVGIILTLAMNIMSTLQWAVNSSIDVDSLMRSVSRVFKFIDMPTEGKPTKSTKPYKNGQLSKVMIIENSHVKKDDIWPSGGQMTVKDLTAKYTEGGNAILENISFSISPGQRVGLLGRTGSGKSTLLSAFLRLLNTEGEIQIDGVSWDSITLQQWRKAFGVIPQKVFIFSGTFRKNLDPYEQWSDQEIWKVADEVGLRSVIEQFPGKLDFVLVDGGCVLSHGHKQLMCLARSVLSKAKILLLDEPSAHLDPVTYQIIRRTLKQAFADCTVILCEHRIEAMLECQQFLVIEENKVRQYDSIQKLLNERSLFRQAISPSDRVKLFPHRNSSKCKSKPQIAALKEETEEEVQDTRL

For `Cc1nn(-c2ccccc2)c2nc(C(=O)NS(C)(=O)=O)cc(-c3ccc(N4CCOCC4)nc3)c12` [Compound 37, N-(methanesulfonyl)-3-methyl-4-[6-(morpholin-4-yl)pyridin-3-yl]-1-phenyl-1H-pyrazolo[3,4-b]pyridine-6-carboxamide], on ΔF508-CFTR [1], the “% Activation” value came to 222.85% and the EC50 was found to be 1660 nM. At ΔF508-CFTR [2], the “% Activation” value was 457.25% and the concentration for a half-maximal effect (EC50) came out at 1160 nM.
The corresponding values for `CC(C)c1nn(C2CCC(F)(F)CC2)c2nc(C(=O)NS(C)(=O)=O)cc(-c3ccc(N4CCOCC4)cc3)c12` [Compound 38, 1-(4,4-difluorocyclohexyl)-N-(methanesulfonyl)-4-[4-(morpholin-4-yl)phenyl]-3-(propan-2-yl)-1H-pyrazolo[3,4-b]pyridine-6-carboxamide] are 182%, 850 nM, 447.7% and 581 nM.
The corresponding values for `CC(C)c1nn(C2CCCOC2)c2nc(C(=O)NS(C)(=O)=O)cc(-c3ccc(N4CCOCC4)cc3)c12` (stereo not shown) [Compound 39, N-(methanesulfonyl)-4-[4-(morpholin-4-yl)phenyl]-1-(oxan-3-yl)-3-(propan-2-yl)-1H-pyrazolo[3,4-b]pyridine-6-carboxamide] are 143.4%, 838 nM, 378.63% and 508 nM.
Taken in the same sequence, the figures for `CCS(=O)(=O)NC(=O)c1cc(-c2ccc(N3CCOCC3)cc2)c2c(C(C)C)nn(C3CCCOC3)c2n1` (stereo not shown) [Compound 40, N-(ethanesulfonyl)-4-[4-(morpholin-4-yl)phenyl]-1-(oxan-3-yl)-3-(propan-2-yl)-1H-pyrazolo[3,4-b]pyridine-6-carboxamide] were 147.1%, 451 nM, 373.43% and 423 nM.
As for `Cc1nn(-c2ccccc2)c2nc(C(=O)NS(C)(=O)=O)cc(-c3ccc(N4CC(N(C)C)C4)cc3)c12` [Compound 41, 4-{4-[3-(dimethylamino)azetidin-1-yl]phenyl}-N-(methanesulfonyl)-3-methyl-1-phenyl-1H-pyrazolo[3,4-b]pyridine-6-carboxamide], on ΔF508-CFTR [1], the “% Activation” value is 52.497% and the EC50 stood at 817 nM. At ΔF508-CFTR [2], the “% Activation” value is 253.3% and the EC50 came to 1140 nM.
As for `CCS(=O)(=O)NC(=O)c1cc(-c2ccc(N3CC(N(C)C)C3)cc2)c2c(C)nn(-c3ccccc3)c2n1` [Compound 42, 4-{4-[3-(dimethylamino)azetidin-1-yl]phenyl}-N-(ethanesulfonyl)-3-methyl-1-phenyl-1H-pyrazolo[3,4-b]pyridine-6-carboxamide], at ΔF508-CFTR [1], the “% Activation” value is recorded as 45.225% and the EC50 was 2120 nM. Besides, at ΔF508-CFTR [2], the “% Activation” value was 226.3% and the EC50 stood at 378 nM.
The corresponding values for `CC(C)c1nn(-c2cccc(N3CC(C)(C)C3)c2)c2nc(C(=O)NS(C)(=O)=O)cc(-c3ccc(N4CCOCC4)cc3)c12` [Compound 43, 1-[3-(3,3-dimethylazetidin-1-yl)phenyl]-N-(methanesulfonyl)-4-[4-(morpholin-4-yl)phenyl]-3-(propan-2-yl)-1H-pyrazolo[3,4-b]pyridine-6-carboxamide] are 379.67%, 299 nM, 627% and 289 nM.
Taken in the same sequence, the figures for `CC(C)c1nn(C2CCCCC2)c2nc(C(=O)NS(C)(=O)=O)cc(-c3ccc(N4CCOCC4)nc3)c12` [Compound 44, 1-cyclohexyl-N-(methanesulfonyl)-4-[6-(morpholin-4-yl)pyridin-3-yl]-3-(propan-2-yl)-1H-pyrazolo[3,4-b]pyridine-6-carboxamide] were 203.87%, 404 nM, 412.63% and 276 nM.
As to `CCS(=O)(=O)NC(=O)c1cc(-c2ccc(N3CCOCC3)cc2)c2c(C(C)C)nn(C3CCCCC3)c2n1` [Compound 45, 1-cyclohexyl-N-(ethanesulfonyl)-4-[4-(morpholin-4-yl)phenyl]-3-(propan-2-yl)-1H-pyrazolo[3,4-b]pyridine-6-carboxamide], the entries for the “% Activation” value on ΔF508-CFTR [1] and on ΔF508-CFTR [2] were 210.97% and 438.4%, respectively. For the same compound, the EC50 was 327 nM on ΔF508-CFTR [1] and 203 nM at ΔF508-CFTR [2].
The corresponding values for `CC(C)c1nn(-c2cccc(N3CCC(F)C3)c2)c2nc(C(=O)NS(C)(=O)=O)cc(-c3ccc(N4CCOCC4)cc3)c12` (stereo not shown) [Compound 46, 1-[3-(3-fluoropyrrolidin-1-yl)phenyl]-N-(methanesulfonyl)-4-[4-(morpholin-4-yl)phenyl]-3-(propan-2-yl)-1H-pyrazolo[3,4-b]pyridine-6-carboxamide] are 457.3%, 643.27%, 706 nM and 446 nM.
The corresponding values for `Cc1nn(C2CCCCC2)c2nc(C(=O)NS(C)(=O)=O)cc(-c3ccc(N4CCOCC4)nc3)c12` [Compound 47, 1-cyclohexyl-N-(methanesulfonyl)-3-methyl-4-[6-(morpholin-4-yl)pyridin-3-yl]-1H-pyrazolo[3,4-b]pyridine-6-carboxamide] are 169.73%, 408.77%, 1860 nM and 1600 nM.
Consider `CCS(=O)(=O)NC(=O)c1cc(-c2ccc(N3CCOCC3)nc2)c2c(C)nn(C3CCCCC3)c2n1` [Compound 48, 1-cyclohexyl-N-(ethanesulfonyl)-3-methyl-4-[6-(morpholin-4-yl)pyridin-3-yl]-1H-pyrazolo[3,4-b]pyridine-6-carboxamide], for which, on ΔF508-CFTR [1], the “% Activation” value is given as 160.9% and the concentration giving a half-maximal response (EC50) was 1200 nM. Also, on ΔF508-CFTR [2], the “% Activation” value is on record as 417.8% and the EC50 came to 1150 nM.
As for `Cc1nn(C2CCCCC2)c2nc(C(=O)NS(C)(=O)=O)cc(-c3cnc(N(C)C)nc3)c12` [Compound 49, 1-cyclohexyl-4-[2-(dimethylamino)pyrimidin-5-yl]-N-(methanesulfonyl)-3-methyl-1H-pyrazolo[3,4-b]pyridine-6-carboxamide], the “% Activation” value is on record as 115.3% on ΔF508-CFTR [1] and 338% at ΔF508-CFTR [2]. The EC50 amounted to 2570 nM at ΔF508-CFTR [1] and 2000 nM on ΔF508-CFTR [2].
Taken in the same sequence, the figures for `CCS(=O)(=O)NC(=O)c1cc(-c2cnc(N(C)C)nc2)c2c(C)nn(C3CCCCC3)c2n1` [Compound 50, 1-cyclohexyl-4-[2-(dimethylamino)pyrimidin-5-yl]-N-(ethanesulfonyl)-3-methyl-1H-pyrazolo[3,4-b]pyridine-6-carboxamide] were 109.8%, 300%, 1680 nM and 1080 nM.
For the compound `CC(C)c1nn(C2CCCCC2)c2nc(C(=O)NS(C)(=O)=O)cc(-c3ccc(N(C)C4CCOCC4)nc3)c12` [Compound 51, 1-cyclohexyl-N-(methanesulfonyl)-4-{6-[methyl(oxan-4-yl)amino]pyridin-3-yl}-3-(propan-2-yl)-1H-pyrazolo[3,4-b]pyridine-6-carboxamide], on ΔF508-CFTR [1], the “% Activation” value stood at 172.4% and the EC50 was 457 nM. Further, on ΔF508-CFTR [2], the “% Activation” value is recorded as 420.67% and the concentration for a half-maximal effect (EC50) stood at 312 nM.
The corresponding values for `CCS(=O)(=O)NC(=O)c1cc(-c2cnc(N(C)C)nc2)c2c(C3CN(C(=O)OC)C3)nn(C3CCCCC3)c2n1` [Compound 52, methyl 3-{1-cyclohexyl-4-[2-(dimethylamino)pyrimidin-5-yl]-6-[(ethanesulfonyl)carbamoyl]-1H-pyrazolo[3,4-b]pyridin-3-yl}azetidine-1-carboxylate] are 75.755%, 1150 nM, 257.85% and 992 nM.
The corresponding values for `CC(C)c1nn(-c2cccc(N(C)C)c2)c2nc(C(=O)NS(C)(=O)=O)cc(-c3ccc(N4CCOCC4)nc3)c12` [Compound 53, 1-[3-(dimethylamino)phenyl]-N-(methanesulfonyl)-4-[6-(morpholin-4-yl)pyridin-3-yl]-3-(propan-2-yl)-1H-pyrazolo[3,4-b]pyridine-6-carboxamide] are 376.8%, 671 nM, 572.78% and 647 nM.
For the compound `CCS(=O)(=O)NC(=O)c1cc(-c2ccc(N3CCOCC3)nc2)c2c(C(C)C)nn(-c3cccc(N(C)C)c3)c2n1` [Compound 54, 1-[3-(dimethylamino)phenyl]-N-(ethanesulfonyl)-4-[6-(morpholin-4-yl)pyridin-3-yl]-3-(propan-2-yl)-1H-pyrazolo[3,4-b]pyridine-6-carboxamide], on ΔF508-CFTR [1], the “% Activation” value is listed as 386.92% and the concentration for a half-maximal effect (EC50) stood at 780 nM. At ΔF508-CFTR [2], the “% Activation” value is recorded as 593.12% and the EC50 came out at 464 nM.
Taken in the same sequence, the figures for `CC(C)c1nn(C2CCCC2)c2nc(C(=O)NS(C)(=O)=O)cc(-c3ccc(N(C)C)nc3)c12` [Compound 55, 1-cyclopentyl-4-[6-(dimethylamino)pyridin-3-yl]-N-(methanesulfonyl)-3-(propan-2-yl)-1H-pyrazolo[3,4-b]pyridine-6-carboxamide] were 126.75%, 1220 nM, 341.65% and 1050 nM.
